According to patent US9370506B2, “Modulators of aldehyde dehydrogenase and methods of use thereof” (The Board of Trustees of the Leland Stanford Junior …, priority 2008, dated 2016):
Substitutions are numbered along the chain they refer to.

target: T1, E488K ALDH1 mutant recombinant protein (Homo sapiens, UniProt P00352, E488K); experiment: High throughput screening against E488K ALDH1 mutant; assay type: biochemical; conditions: octylaldehyde and phenylacetaldehdye as substrates
T1 sequence (P00352 1-501 E488K): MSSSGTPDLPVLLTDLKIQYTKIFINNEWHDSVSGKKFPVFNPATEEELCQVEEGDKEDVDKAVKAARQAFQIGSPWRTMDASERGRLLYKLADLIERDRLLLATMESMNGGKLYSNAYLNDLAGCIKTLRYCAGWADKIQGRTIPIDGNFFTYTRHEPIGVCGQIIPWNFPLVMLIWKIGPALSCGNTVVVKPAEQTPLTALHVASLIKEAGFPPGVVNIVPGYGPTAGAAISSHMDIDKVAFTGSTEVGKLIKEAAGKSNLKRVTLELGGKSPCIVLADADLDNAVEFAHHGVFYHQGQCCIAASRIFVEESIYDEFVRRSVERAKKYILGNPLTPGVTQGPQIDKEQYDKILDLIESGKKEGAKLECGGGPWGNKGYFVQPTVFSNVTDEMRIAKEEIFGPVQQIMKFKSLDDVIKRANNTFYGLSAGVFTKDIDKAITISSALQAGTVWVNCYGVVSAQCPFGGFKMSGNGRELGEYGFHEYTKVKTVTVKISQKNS
Description: The screening assays used octylaldehyde (an example of longer chain aliphatic aldehyde) and phenylacetaldehdye (an example of aromatic aldehyde), instead of acetaldehyde.

SMILES	identified as ALDH1 activator
COc1ccc(C2C(C#N)=C(C)NC3=C2C(=O)CC(c2ccc(Cl)cc2)C3)cc1 (centres unmarked) [Alda-83, 7-(4-chloro-phenyl)-4-(4-methoxy-phenyl)-2-methyl-5-oxo-1,4,5,6,7,8-hexahydro-quinoline-3-carbonitrile]	ALDH1 activators
C=CCn1c(C(C)NC(=O)c2ccccc2)nc2ccccc21 (centres unmarked) [Alda-81, N-[1-(1-allyl-1H-benzoimidazol-2-yl)-ethyl]-benzamide]	ALDH1 activators

target: T2, ALDH2 (Homo sapiens, UniProt P05091, E504K); experiment: Screening for ALDH2 agonists (NAD+ to NADH, optionally diaphorase/resazurin-coupled); assay type: biochemical; conditions: increase of ALDH2 activity; 10 mM acetaldehyde as substrate
T2 sequence (P05091 18-517 E504K): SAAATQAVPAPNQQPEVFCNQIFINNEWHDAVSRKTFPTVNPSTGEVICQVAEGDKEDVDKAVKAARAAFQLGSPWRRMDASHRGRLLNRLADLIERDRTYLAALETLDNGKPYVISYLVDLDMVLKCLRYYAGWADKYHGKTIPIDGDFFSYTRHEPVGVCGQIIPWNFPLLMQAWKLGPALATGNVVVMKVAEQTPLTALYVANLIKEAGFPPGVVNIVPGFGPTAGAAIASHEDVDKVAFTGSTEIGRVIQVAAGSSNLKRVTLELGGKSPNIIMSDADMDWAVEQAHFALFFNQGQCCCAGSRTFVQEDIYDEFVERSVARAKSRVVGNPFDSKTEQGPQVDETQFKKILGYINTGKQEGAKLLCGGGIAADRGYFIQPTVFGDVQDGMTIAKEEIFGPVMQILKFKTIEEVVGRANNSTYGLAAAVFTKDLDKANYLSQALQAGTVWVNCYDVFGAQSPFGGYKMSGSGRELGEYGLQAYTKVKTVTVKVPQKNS
Procedure: Compounds were screened using a method as depicted schematically in FIG. 4. Essentially, the reaction is carried out at 25° C. in 0.1 NaPPi buffer, pH 9.5, 2.4 mM NAD^+ and 10 mM acetaldehyde as the substrate. Enzymatic activity is measured by a reductive reaction of NAD^+ to NADH at 340 nm. Alternatively, the production of NADH can be coupled with another enzymatic reaction that consumes NADH and that provides for a detectable signal. An example of such an enzymatic reaction is a diaphorase-based reaction, which reduces resazurin to its […] fluorescent compound resorufin.
For example, a 120 μl reaction mixture for ALDH enzymatic activity comprises the following components:
43 μl 150 mM sodium pyrophosphate (NaPPi) buffer, pH 9.0;
15 μl 80 mM acetaldehyde;
1 μl of resazurin (0.2 mg/ml in H2O);
1 μl of diaphorase (1 unit, e.g., from Clostridium kluyveri);
2 μl of variant ALDH2 (e.g., 2 μl of variant ALDH2 at (0.5-2 μg/μl); and
28 μl of a solution comprising an agent to be tested, which agent has been resuspended in an appropriate solvent (e.g., an aqueous solution, DMSO, and the like).
Approximately 65,000 compounds were screened. A number of compounds were identified that increase the activity of ALDH2.

SMILES	EC50
Cc1ccc(-n2ncc3c(N(CCO)Cc4ccccc4)ncnc32)cc1Cl [Alda-67, 2-{benzyl-[1-(3-chloro-4-methyl-phenyl)-1H-pyrazolo[3,4-d]pyrimidin-4-yl]-amino}-ethanol]	3.42 µM
COc1ccccc1CNc1nccn(-c2ccc3c(c2)OCCO3)c1=O [Alda-63, 1-(2,3-dihydro-benzo[1,4]dioxin-6-yl)-3-(2-methoxy-benzylamino)-1H-pyrazin-2-one]	12.4 µM
Cc1ccc(N2CC(c3nc(-c4ccncc4)no3)CC2=O)cc1F (centres unmarked) [Alda-70, 1-(3-fluoro-4-methyl-phenyl)-4-(3-pyridin-4-yl-[1,2,4]oxadiazol-5-yl)-pyrrolidin-2-one]	5.57 µM
CCCCC(=O)Nc1cc(-c2ccc(C)cc2)no1 [Alda-57, pentanoic acid (3-p-tolyl-isoxazol-5-yl)-amide]	1.4 µM
COc1cccc(CNc2nccn(-c3ccc(C)c(C)c3)c2=O)c1 [Alda-62, 1-(3,4-dimethyl-phenyl)-3-(3-methoxy-benzylamino)-1H-pyrazin-2-one]	14.7 µM
Cc1ccc(-n2cc(-c3ccccc3)c3c(N4CCN(CCO)CC4)ncnc32)cc1Cl [Alda-73, 2-{4-[7-(3-chloro-4-methyl-phenyl)-5-phenyl-7H-pyrrolo[2,3-d]pyrimidin-4-yl]-piperazin-1-yl}-ethanol]	3.55 µM
Cc1ccc(CNC(=O)Cn2c3ccccc3c3cn[nH]c(=O)c32)cc1 [Alda-71, N-(4-methyl-benzyl)-2-(1-oxo-1,2-dihydro-2,3,9-triaza-fluoren-9-yl)-acetamide]	16.6 µM
O=C(NCc1ccc2c(c1)OCO2)c1cc(-n2cnnc2)ccc1Cl [Alda-53, N-benzo[1,3]dioxol-5-ylmethyl-2-chloro-5-[1,2,4]triazol-4-yl-benzamide]	1.09 µM
CCOC(=O)c1cc(-c2ccc(C)cc2)n(CCC(=O)N2CCN(c3ccccn3)CC2)c1C [Alda-56, 2-methyl-1-[3-oxo-3-(4-pyridin-2-yl-piperazin-1-yl)-propyl]-5-p-tolyl-1H-pyrrole-3-carboxylic acid ethyl ester]	3.65 µM
Cc1ccc(CNS(=O)(=O)c2cc(-c3cc(C)no3)ccc2C)cc1 [Alda-60, 2-methyl-N-(4-methyl-benzyl)-5-(3-methyl-isoxazol-5-yl)-benzene sulfonamide]	4.96 µM
Cc1ccc(N2CC(c3nc(-c4cccnc4)no3)CC2=O)cc1Cl (centres unmarked) [Alda-69, 1-(3-chloro-4-methyl-phenyl)-4-(3-pyridin-3-yl-[1,2,4]oxadiazol-5-yl)-pyrrolidin-2-one]	8.9 µM
Cc1ccc(CNC(=O)C(C)SC2=Nc3ccccc3C3=NC(C(C)C)C(=O)N23)cc1 (centres unmarked) [Alda-66, 2-(2-isopropyl-3-oxo-2,3-dihydro-imidazo[1,2-c]quinazolin-5-ylsulfanyl)-N-(4-methyl-benzyl)-propionamide]	2.66 µM
NC(=O)c1cc(S(=O)(=O)NCc2ccc3c(c2)OCO3)cs1 [Alda-59, 4-[(benzo[1,3]dioxol-5-ylmethyl)-sulfamoyl]-thiophene-2-carboxylic acid amide]	4.6 µM
CCn1cnc2c(=O)oc3ccc(S(=O)(=O)NCc4ccc5c(c4)OCO5)cc3c21 [Alda-54, 1-ethyl-4-oxo-1,4-dihydro-chromeno[3,4-d]imidazole-8-sulfonic acid (benzo[1,3]dioxol-5-ylmethyl)-amide]	1.72 µM
Cc1cc(C)cc(NC(=O)CSC2=Nc3ccccc3C3=NC(C(C)C)C(=O)N23)c1 (centres unmarked) [Alda-65, N-(3,5-dimethyl-phenyl)-2-(2-isopropyl-3-oxo-2,3-dihydro-imidazo[1,2-c]quinazolin-5-ylsulfanyl)-acetamide]	8.41 µM
O=C(C1COc2cc(S(=O)(=O)NCc3ccccc3Cl)ccc2O1)N1CCCCCC1 (centres unmarked) [Alda-64, 2-(azepane-1-carbonyl)-N-(2-chloro-benzyl)-2,3-dihydro-benzo[1,4]dioxine-6-sulfonamide]	2.2 µM
O=C(Cn1c2ccccc2c2cn[nH]c(=O)c21)NCc1ccc2c(c1)OCO2 [Alda-72, N-benzo[1,3]dioxol-5-ylmethyl-2-(1-oxo-1,2-dihydro-2,3,9-triaza-fluoren-9-yl)-acetamide]	2.92 µM
Cc1ccc(CNS(=O)(=O)c2cc(-c3onc(C)c3C)ccc2C)cc1 [Alda-61, 5-(3,4-dimethyl-isoxazol-5-yl)-2-methyl-N-(4-methyl-benzyl)-benzene sulfonamide]	6.44 µM
COc1c(C(=O)NCc2ccc3c(c2)OCO3)ccc2ccccc12 [Alda-52, 1-methoxy-naphthalene-2-carboxylic acid (benzo[1,3]dioxol-5-ylmethyl)-amide]	3 µM

target: T3, ALDH2 isozyme (Homo sapiens, UniProt P05091); experiment: ALDH2 enzymatic activity, spectrophotometric NAD+ to NADH assay; assay type: biochemical; conditions: 500 uM & 1000 uM; acetaldehyde as substrate; FIG. 17
T3 construct: made in house; host or cells: BL21 E. coli
T3 sequence (P05091 18-517): T2 sequence (P05091 18-517 E504K) with K487E
Procedure: Reagents for plant-derived compounds safrole, isosafrole, piperine, sesamin, capsaicin were purchased from Sigma-Aldrich Chemicals and dihydromethysticin was purchased from AvaChem. Scientific. Piperine related compounds, Alda-101 to Alda-112, were synthesized by standard organic chemistry. All testing compounds were dissolved in dimethyl-sulfoxide (DMSO) to obtain a stock solution of 20 mM. Different recombinant ALDH isozymes with a His-epitope tag at the N-terminus were constructed, cloned and expressed in BL21 E. coli host cells according published methods (Chen et al., 2008 Science 321:1493). The bacteria were subjected to 0.5 mM IPTG induction for protein expression at 30° C. Purification of the recombinant proteins by affinity nickel columns were carried out using a standard protocol according to manufacturer's instructions (Novagen, Wis., USA).
ALDH enzymatic activity was determined spectrophotometrically using purified recombinant protein (15 ug) in the reductive reaction of NAD^+ to NADH at λ340 nm (Rex et al., 1985, Alcohol Clin Exp Res 9: 147). All the assays in the presence of absence of a testing compound were carried out at 25° C. in […] pyrophosphate buffer, pH=9.5, 2.4 mM NAD+ and 10 mM acetaldehyde or phenylacetaldehyde as a substrate.

SMILES	effect on enzymatic activity of ALDH2 isozyme
C=CCc1ccc2c(c1)OCO2 [safrole, 5-(2-propenyl)-1,3-benzodioxole]	Inhibitory effect

same assay, conditions: 1000 uM; acetaldehyde as substrate; FIG. 18

SMILES	effect on enzymatic activity of ALDH2 isozyme, 15-minute kinetic measurements
C=CCc1ccc2c(c1)OCO2 [safrole, 5-(2-propenyl)-1,3-benzodioxole]	inhibitory effect
